Test results published in patent publication US6271342A, “Sugar-modified cytostatics” (Bayer Aktiengesellschaft, priority 1995, dated 2001).
Where a name gives a salt, the structure may show the parent alone.

Columns and labels:
SW 480 = assay: Growth inhibition test (MTT) for cytotoxic properties; type: cell-based, human; conditions: Table 1a, glycoconjugates of batracyline
Procedure: (§1) Growth Inhibition Test for Determination of the Cytotoxic Properties of Glycoconjugates of Batracyline and of Quinolone-a
(§2) The human colon cell lines SW 480 and HT 29 (ATCC no. CCL 228 and HBT-38) and the mouse melanoma cell line B 16 F 10 were cultured in Roux dishes in RPMI 1640 medium with addition of 10% FCS. The cultures were then trypsinized and taken up in RPMI plus 10% FCS to a cell count of 50,000 cells/ml. 100 μl of cell suspension/well were introduced into a 96 microwell plate and incubated for 1 day at 37° C. in a CO2 incubating cabinet. A further 100 μl of RPMI medium and 1 μl of dimethyl sulphoxide with the test substances were then added. The growth was checked after day 3 and day 6. 40 μl of MTT solution (3-(4,5-dimethylthiazol-2-yl)-2,5-diphenyltetrazoline bromide) with an initial concentration of 5 mg/ml of H2 O were added to each microwave. The plate was incubated for 5 hours in a CO2 incubating cabinet at 37° C. The medium was then sucked off and 100 μl of i-propanol/well were added. After shaking for 30 minutes with 100 μl of H2 O, the extinction was measured at 540 nm with a Titertek Multiskan MCC/340 (Flow).
(§3) The cytotoxic action of the glycoconjugates of batracyline described is shown in Table 1a as the IC50 value in each case for the SW 480 and HT 29 cell lines.

HT 29 = assay: as above; type: cell-based, human; conditions: Table 1a, glycoconjugates of batracyline
Procedure: as §1, §2, §3

| Compound | IC50 (SW 480) [µM] | IC50 (HT 29) [µM] |
| --- | --- | --- |
| N-{N^α,N^ε -Bis-[O-(3,4-di-O-methyl-β-D-galactopyranosyl)-4-hydroxy-phenylamino- thiocarbonyl]-lysyl-seryl}-batracyline [Example 6.32] | 60 | 60 |
| N-{N^α,N^ε -Bis-[O-(3-O-n-propyl-β-L-fucosyl)-4-hydroxy-phenylamino-thiocarbonyl ]lysyl-D-alanyl}-batracyline [Example 6.7] | 60 | > 250 |
| COC1C(O)C(C)OC(Oc2ccc(NC(=S)Nc3ccc4c(c3)Cn3c-4nc4ccccc4c3=O)cc2)C1O [Example 7.7, N-[O-(3-O-Methyl-β-L-fucosyl)-4-hydroxy-phenylamino-thiocarbonyl]-batr acyline] | 100 | > 250 |
| N-{N^α,N^ε -Bis-[O-(3-O-methyl-β-D-galactopyranosyl)-4-hydroxy-phenylamino-thioc arbonyl]-lysyl-seryl}-batracyline [Example 6.30] | 60 | 70 |
| N-{N^α,N^ε -Bis-[O-(3-O-carbamoylmethyl-β-D-galactopyranosyl)-4-hydroxy-phenylam ino-thiocarbonyl]-lysyl-D-seryl}-batracyline [Example 6.43] | 90 | 80 |
| N-{N-[O-(3-O-Carboxymethyl-β-L-fucosyl)-4-hydroxy-phenylamino-thiocarb onyl]-D-alanyl}-batracyline, sodium salt [Example 7.2] | 40 | 30 |
| N-{N^α -[O-(β-D-Galactopyranosyl)-4-hydroxy-phenylamino-thiocarbonyl]-lysyl- D-alanyl}-batracyline [Example 4.6] | 10 | 10 |
| N-{N^α -[O-(3-O-Carboxymethyl-β-D-galactopyranosyl)-4-hydroxy-phenylamino-th iocarbonyl]-N^ε -[O-(3-O-carbamoylmethyl-β-D-galactopyranosyl)-4-hydroxy-phenylamino- thiocarbonyl]-lysyl-D-alanyl}-batracyline, sodium salt [Example 5.23] | 25 | 35 |
| N-{N^α,N^ε -Bis-[O-(3-O-carboxymethyl-β-D-galactopyranosyl)-4-hydroxy-phenylamin o-thiocarbonyl]-lysyl-D-asparagyl}-batracyline, di-sodium salt [Example 6.46] | 120 | 100 |
| O=C(O)CO[C@H]1[C@@H](O)[C@@H](CO)O[C@@H](Oc2ccc(NC(=S)NCCCC[C@H](NC(=S)Nc3ccc(O[C@@H]4O[C@H](CO)[C@H](O)[C@H](OCC(=O)O)[C@H]4O)cc3)C(=O)Nc3ccc4nc5n(c(=O)c4c3)Cc3ccccc3-5)cc2)[C@@H]1O [Example 6.28, N-{N^α,N^ε -Bis-[O-(3-O-carboxymethyl-β-D-galactopyranosyl)-4-hydroxy-phenylamino-thiocarbonyl]-lysyl}-batracyline, di-sodium salt] | 40 | 25 |
| N-{N^α,N^ε -Bis-[O-(3-O-methoxycarbonylmethyl-β-D-galactopyranosyl)-4-hydroxy-ph enylamino-thiocarbonyl]-lysyl-D-alanyl}-batracyline [Example 6.80] | 40 | 25 |
| N-{N^α,N^ε -Bis-[O-(2-hydroxyethyl-β-L-fucosyl)-4-hydroxy-phenylamino-thiocarbon yl]-lysyl-D-alanyl}-batracyline [Example 6.10] | 50 | 50 |
| N-{N^α -[O-(3-O-Carboxymethyl-β-D-galactopyranosyl)-4-hydroxy-phenylamino-th iocarbonyl]-lysyl-D-alanyl}-batracyline, sodium salt [Example 4.9] | 20 | 30 |
| N-{N^α -[O-(3-O-Methoxycarbonylmethyl-β-D-galactopyranosyl)-4-hydroxy-phenyl amino-thiocarbonyl]-N^ε -[O-(3-O-carbamoylmethyl-β-D-galactopyranosyl)-4-hydroxy-phenylamino- thiocarbonyl]-lysyl-D-alanyl}-batracyline [Example 5.22] | 30 | 40 |
| N-{Nα-[O-(β-L-Fucosyl)-4-hydroxy-phenylamino-thiocarbonyl]-lysy l-D-alanyl}-batracyline [Example 4.1] | 25 | 30 |
| CO[C@@H]1[C@@H](O)[C@H](Oc2ccc(NC(=S)N[C@@H](CCCCN)C(=O)N[C@H](C)C(=O)Nc3ccc4c(c3)CN3C(=O)c5ccccc5C3=N4)cc2)O[C@H](CO)[C@@H]1OC [Example 4.5, N-{N^α -[O-(3,4-Di-O-methyl-β-D-galactopyranosyl)-4-hydroxy-phenylamino-thiocarbonyl]-lysyl-D-alanyl}-batracyline] | 15 | 15 |
| N-{N-[O-(3,4-Di-O-methyl-β-D-galactopyranosyl)-4-hydroxy-phenylamino-t hio-carbonyl]-D-alanyl}-batracyline [Example 7.8] | 40 | 30 |
| N-{N^α -[O-(3-O-Methyl-β-D-galactopyranosyl)-4-hydroxy-phenylamino-thiocarbo nyl]-lysyl-D-alanyl}-batracyline [Example 4.7] | 15 | 15 |
| N-{N^α -[O-(3-O-Methyl-β-L-fucosyl)-4-hydroxyphenylamino-thiocarbonyl]-N. sup.ε -[4-hydroxyethylamino-2-[O-(3-O-methyl-β-L-fucosyl)-4-hydroxyphenylam ino]triazin-6-yl]]-lysyl-D-alanyl}-batracyline [Example 5.8] | 100 | > 250 |
| NC(=O)COC1C(O)C(CO)OC(Oc2ccc(NC(=S)NCCCCC(NC(=S)Nc3ccc(OC4OC(CO)C(O)C(OCC(N)=O)C4O)cc3)C(=O)Nc3ccc4nc5n(c(=O)c4c3)Cc3ccccc3-5)cc2)C1O [Example 6.29, N-{N^α,N^ε -Bis-[O-(3-O-carbamoylmethyl-β-D-galactopyranosyl)-4-hydroxy-phenylamino-thiocarbonyl]-lysyl}-batracyline] | 95 | 130 |
| N-{N^α -[O-(3,4-Di-O-methyl-β-D-galactopyranosyl)-4-hydroxy-phenylamino-thio carbonyl]-N^ε -[O-(3-O-carbamoylmethyl-β-D-galactopyranosyl)-4-hydroxy-phenylamino- thiocarbonyl]-lysyl-D-alanyl}-batracyline [Example 5.21] | 60 | 80 |
| N-{N^α -[O-(3-O-Carboxymethyl-β-D-galactopyranosyl)-4-hydroxy-phenylamino-th iocarbonyl]-N^ε -[O-(3,4-di-O-methyl-β-D-galactopyranosyl)-4-hydroxy-phenylamino-thio carbonyl]-lysyl-D-alanyl}-batracyline [Example 5.14] | 20 | 30 |
| N-{N^α,N^ε -Bis-[O-(3,4-di-O-methyl-β-D-galactopyranosyl)-4-hydroxy-phenylamino- thiocarbonyl]-lysyl-D-seryl}-batracyline [Example 6.40] | 170 | 60 |
| N-{N-(O-(3-O-Methyl-β-L-fucosyl)-4-hydroxy-phenylamino-thiocarbonyl]-D -alanyl}-batracyline [Example 7.1] | 40 | 40 |
